From PubChem BioAssay AID2060889 (Molecular Pharmacology Branch, DTP, NCI, 2025)

System: LG0567-F671-PDC complex spheroids viability
Test: Anticancer human tumor LG0567-F671-PDC patient-derived lung adenocarcinoma cell line growth inhibition [RAS]
Conditions: for IC50: curve of first compound; for viability, T/C: stronger effect = lower value
Summary of the method: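 Tumour cells grown as complex spheroids with HUVEC endothelial cells and mesenchymal stem cells, treated with RAS pathway inhibitor combinations. Each agent spans half-log steps from near clinical Cmax, or 10 microM where Cmax is unknown.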
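Note: spheroids exposed to compound for seven days before readout.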
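Throughout, for IC50: luminescence signal used as a proxy for viable cells.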

IC50 (second compound 0.000949 µM): < 0.949 nM
IC50 (second compound 0.003 µM): < 0.949 nM
IC50 (second compound 0.00949 µM): < 0.949 nM
IC50 (second compound 0.03 µM): < 0.949 nM
IC50 (second compound 0.0949 µM): < 0.949 nM
IC50 (second compound 0.3 µM): < 0.949 nM
Structure (SMILES): CCc1c2c(nc3ccc(O)cc13)-c1cc3c(c(=O)n1C2)COC(=O)[C@]3(O)CC + CCn1c(-c2cccnc2C(C)OC)c2c3cc(ccc31)N1CCOC(CC(NC(=O)C(C(C)C)N(C)C(=O)C3(F)CCN(C(=O)C#CC(C)(C)N(C)C)CC3)C(=O)N3CCCC(N3)C(=O)OCC(C)(C)C2)C1
viability, T/C (second compound 0.000949 µM, first compound 0.000949 µM): 13.8%
viability, T/C (second compound 0.000949 µM, first compound 0.003 µM): 13.3%
viability, T/C (second compound 0.000949 µM, first compound 0.00949 µM): 11.2%
viability, T/C (second compound 0.000949 µM, first compound 0.03 µM): 9.37%
viability, T/C (second compound 0.000949 µM, first compound 0.0949 µM): 6.34%
viability, T/C (second compound 0.000949 µM, first compound 0.3 µM): 3.92%
viability, T/C (second compound 0.003 µM, first compound 0.000949 µM): 15.5%
viability, T/C (second compound 0.003 µM, first compound 0.003 µM): 13.3%
viability, T/C (second compound 0.003 µM, first compound 0.00949 µM): 11.8%
viability, T/C (second compound 0.003 µM, first compound 0.03 µM): 9.3%
viability, T/C (second compound 0.003 µM, first compound 0.0949 µM): 6.04%
viability, T/C (second compound 0.003 µM, first compound 0.3 µM): 3.42%
viability, T/C (second compound 0.00949 µM, first compound 0.000949 µM): 13.6%
viability, T/C (second compound 0.00949 µM, first compound 0.003 µM): 14.2%
viability, T/C (second compound 0.00949 µM, first compound 0.00949 µM): 11.6%
viability, T/C (second compound 0.00949 µM, first compound 0.03 µM): 9.12%
viability, T/C (second compound 0.00949 µM, first compound 0.0949 µM): 6.47%
viability, T/C (second compound 0.00949 µM, first compound 0.3 µM): 3.47%
viability, T/C (second compound 0.03 µM, first compound 0.000949 µM): 12.1%
viability, T/C (second compound 0.03 µM, first compound 0.003 µM): 11.9%
viability, T/C (second compound 0.03 µM, first compound 0.00949 µM): 11.2%
viability, T/C (second compound 0.03 µM, first compound 0.03 µM): 7.2%
viability, T/C (second compound 0.03 µM, first compound 0.0949 µM): 4.9%
viability, T/C (second compound 0.03 µM, first compound 0.3 µM): 2.69%
viability, T/C (second compound 0.0949 µM, first compound 0.000949 µM): 12.8%
viability, T/C (second compound 0.0949 µM, first compound 0.003 µM): 9.98%
viability, T/C (second compound 0.0949 µM, first compound 0.00949 µM): 10.1%
viability, T/C (second compound 0.0949 µM, first compound 0.03 µM): 6.64%
viability, T/C (second compound 0.0949 µM, first compound 0.0949 µM): 4.22%
viability, T/C (second compound 0.0949 µM, first compound 0.3 µM): 2.51%
viability, T/C (second compound 0.3 µM, first compound 0.000949 µM): 10.2%
viability, T/C (second compound 0.3 µM, first compound 0.003 µM): 8.84%
viability, T/C (second compound 0.3 µM, first compound 0.00949 µM): 7.66%
viability, T/C (second compound 0.3 µM, first compound 0.03 µM): 5.32%
viability, T/C (second compound 0.3 µM, first compound 0.0949 µM): 3.16%
viability, T/C (second compound 0.3 µM, first compound 0.3 µM): 2.05%
